From patent US4259332A, “Novel taurine derivatives” (priority 1979, dated 1981)

How the values were obtained:
Acute toxicity, mouse = settings: in vivo
Description: (§1) Tests were carried out both on mice and rats by means of oral, subcutaneous, intraperitoneal and intravenous administration.
(§2) In the case of oral administration, the product was used in the acid form suspended in an aqueous solution of carboxymethylcellulose, whilst in the case of parenteral administration it was made soluble by salt formation with sodium hydroxide in a physiological solution with a neutral final pH.
(§3) The results are given in the following table, together with the results found in the literature for acetylsalicylic acid (ASA).
(§4) Wherever possible, the values of the LD50 were calculated using the probit method; if no mortality took place even at very high dosages, the maximum dosage tested has been given.

Acute toxicity, rat = settings: in vivo, intravenous, sodium salt solution
Description: as §1, §2, §3, §4

[1] = assay type: in vivo, rat; settings: rat, in vivo, po, 335 mg/kg
Description: Rats which had not been fed for 24 hours were used. The AST product was administered orally as the acid or the sodium salt at a dosage of 335 mg/Kg suspended in 1% carboxymethylcellulose. […] Both the methods of treatment and the observation time were identical for the 3 groups of animals.

[2] = Analgesic activity: convulsions produced by phenylquinone; assay type: in vivo, mouse; settings: oral, ASA 200, AST 300 mg/Kg
Description: (A) Test of convulsions produced by phenylquinone injected into mice by the intraperitoneal route. The AST product was administered orally both in the acid form (AST Ac). and as the sodium salt (AST Na). It was compared with a molar equivalent dosage of acetylsalicylic acid and with a carboxymethylcellulose placebo. The convulsions were induced at varying intervals from the oral treatment counting from the first 20 minutes after the injection of phenylquinone.

[3] = Analgesic activity: mechanical pressure test on inflamed rat's paw; assay type: in vivo; settings: oral, ASA 200, AST 300 mg/Kg
Description: (B) Mechanical pressure test on inflamed rat's paw. The AST product was administered both in the acid and sodium salt form by the oral method. It was compared with a molar equivalent dosage of acetylsalicylic acid and with a carboxymethylcellulose placebo. The inflammation of the paw was induced by a local injection of yeast simultaneously with the oral treatment with the drugs and the tenderness was measured in grams of mechanical pressure required to cause a reaction in the animal.

[4] = Edema resulting from yeast in the paw of the rat; assay type: in vivo; settings: oral, ASA 200, AST 300 mg/Kg
Description: (A) Edema resulting from yeast in the paw of the rat. The AST product was administered orally both in the acid and sodium salt form. It was compared with a molar equivalent dose of acetylsalicylic acid and with carboxymethylcellulose placebo. The edema of the paw was induced with a local injection of the yeast simultaneously with the oral treatment with the drugs, and the volume of the paw was measured in hundredths of milliliter.

[5] = Edema as a result of nystatin in the rat's paw; assay type: in vivo; settings: p.o.
Description: (B) Edema as a result of nystatin in the rat's paw. The long duration of this type of edema enabled the animals to be repeatedly treated in order to ascertain the presence if any of the protracted effect of the AST product also using parenteral administration. The comparison was carried out using a molar equivalent dose of acetylsalicylic acid administrated orally and with the carboxymethylcellulose placebo also only administered orally. The AST product was used in the acid form orally and in the salt form using intraperitoneal administration.
The dosages of the drugs, always proportional to one another, were varied from day to day, i.e.: the first day a dosage of 200 mg/Kg of ASA and 300 mg/Kg of AST; the second day a double dose of each; the third day a double dose of each divided into two equal components administered with a spacing of 9 hours (10 am and 7 pm respectively); the fourth day no treatment in order to check the length of the effect after the fourth administration.
The […] was injected into the paw on the night before the first treatment with the drugs and the volume of the paw was measured in hundredths of milliliter.

[6] = Antipyretic activity: pyrexia from subcutaneous yeast in the rat; assay type: in vivo; settings: p.o., ASA 200, AST 300 mg/Kg
Description: Pyrexia from subcutaneous yeast in the rat. The AST product was administered orally in the acid from and the salt form with sodium, and by the intraperitoneal method in the salt form. It was compared with a molar equivalent dose of acetylsalicylic acid administered orally and with a carboxymethylcellulose placebo. The pyrexia was induced with a subcutaneous injection of yeast on the evening prior to the drug treatment, i.e. 16 hours before.

[7] = Pharmaco-toxicological tests on laboratory animals (summary); assay type: in vivo
[8] = Toxicology, oral treatment of mice for 180 days, Compound A; assay type: in vivo, mouse; settings: 200 mg/kg orally
[9] = Vasodilator activity (vasodilation of the ocular conjunctiva in guinea pigs); assay type: in vivo, guinea pig
[10] = Choleretic activity in cannulated rats; assay type: in vivo, rat
Description: Rats were fitted with a cannula, the bile volume was measured after the first hour, they were then treated with a test compound and the bile volume was measure after the second hour, so as to determine the percentage change. The various compounds were administered intravenously at a dose of 100 mg/kg.

[11] = Protection against hepatic intoxication by CCl4 and cold, Compound A (BSF in blood); assay type: in vivo; settings: 500 mg/kg simultaneously with CCl4; 5 h at 4° C.
Description: Oral administration of 5 ml/kg of a 20% solution of CCl4 in oil was followed by exposure for 5 hours to a temperature of 4° C. 500 Mg/kg of the Compound A of the invention were administered simultaneously with the CCl4. The BSF was tested in the blood. An average of 20 animals were used per group, and relative to the controls there was a reduction of 16%.

[12] = Antilipemic action, Morris or Handler diet, Compound A; assay type: in vivo, Wistar rat; settings: for Bile BSF excretion, percentage change vs controls / Serum beta-lipoproteins, percentage change vs controls / Serum total cholesterol, percentage change vs controls / Serum total lipids, percentage change vs controls: 50 days, 200 mg/kg orally
Description: Wistar rats were treated for 50 days with a Morris diet or a Handler diet. Simultaneously with the diet they received 200 mg/kg of Compound A or of choline orally every day. The controls only received the diet. The following were examined at the end of the treatment: (a) total cholesterol, total lipids and beta-lipoproteins in the serum, (b) BSF excretion in the bile.

[13] = 100 mg/kg i.v., given after first hour

CC(=O)Oc1ccccc1C(=O)OCCN(CCOC(=O)c1ccccc1OC(C)=O)CCS(=O)(=O)O [AST, N,N-di(acetylsalicyloyloxy ethyl)taurine]
LD50 (Acute toxicity, mouse; intravenous, sodium salt solution): 520 mg/kg | LD50 (Acute toxicity, mouse; ip, intraperitoneal, sodium salt solution): 1300 mg/kg | LD50 (Acute toxicity, mouse; oral, acid form in carboxymethylcellulose): 5000 mg/kg | LD50 (Acute toxicity, mouse; sc, subcutaneous, sodium salt solution): 2000 mg/kg | LD50 (Acute toxicity, rat): 530 mg/kg | Alteration of the gastric or intestinal mucosa [1]: did not show any alteration of the gastric or intestinal mucosa | Inhibition % of convulsions in respect of treatment with placebo ([2]; 1h): 10% | Inhibition % of convulsions in respect of treatment with placebo ([2]; 2h): 11% | Inhibition % of convulsions in respect of treatment with placebo ([2]; 4h): 0% | % Inhibition of the hyperalgesia in respect of treatment with placebo ([3]; 1h): 47% | % Inhibition of the hyperalgesia in respect of treatment with placebo ([3]; 3h): 47% | % Inhibition of the hyperalgesia in respect of treatment with placebo ([3]; 5h): 19% | Inhibition of the edema with respect to treatment with placebo ([4]; 1h): 42 | Inhibition of the edema with respect to treatment with placebo ([4]; 3h): 38 | Inhibition of the edema with respect to treatment with placebo ([4]; 5h): 48 | % Inhibition of the edema in respect of treatment with placebo ([5]; 1st day, 2h after 1st dose, ASA 200, AST Ac 300 mg/Kg): 0% | % Inhibition of the edema in respect of treatment with placebo ([5]; 1st day, 4h after 1st dose, ASA 200, AST Ac 300 mg/Kg): 3% | % Inhibition of the edema in respect of treatment with placebo ([5]; 1st day, 8h after 1st dose, ASA 200, AST Ac 300 mg/Kg): 3% | % Inhibition of the edema in respect of treatment with placebo ([5]; 2nd day, 2h after 2nd dose, ASA 400, AST Ac 600 mg/Kg): 3% | % Inhibition of the edema in respect of treatment with placebo ([5]; 2nd day, 4h after 2nd dose, ASA 400, AST Ac 600 mg/Kg): 2% | % Inhibition of the edema in respect of treatment with placebo ([5]; 2nd day, 8h after 2nd dose, ASA 400, AST Ac 600 mg/Kg): 10% | % Inhibition of the edema in respect of treatment with placebo ([5]; 3rd day, 2h after 3rd dose, ASA 200, AST Ac 300 mg/Kg): 8% | % Inhibition of the edema in respect of treatment with placebo ([5]; 3rd day, 4h after 3rd dose, ASA 200, AST Ac 300 mg/Kg): 7% | % Inhibition of the edema in respect of treatment with placebo ([5]; 3rd day, 8h after 3rd dose, ASA 200, AST Ac 300 mg/Kg): 6% | % Inhibition of the edema in respect of treatment with placebo ([5]; 4th day, 13h after 4th dose, ASA 200, AST Ac 300 mg/Kg): 3% | % Inhibition of the edema in respect of treatment with placebo ([5]; 4th day, 17h after 4th dose, ASA 200, AST Ac 300 mg/Kg): 3% | % Inhibition of the edema in respect of treatment with placebo ([5]; 4th day, 23h after 4th dose, ASA 200, AST Ac 300 mg/Kg): 0% | % Inhibition of the pyrexia in respect of treatment with placebo ([6]; 1h): 18% | % Inhibition of the pyrexia in respect of treatment with placebo ([6]; 2h): 26% | % Inhibition of the pyrexia in respect of treatment with placebo ([6]; 4h): 30% | % Inhibition of the pyrexia in respect of treatment with placebo ([6]; 6h): 25% | % Inhibition of the pyrexia in respect of treatment with placebo ([6]; 8h): 9% | Antiinflammatory, analgesic and antipyretic properties (in words) ([7]; compared with acetylsalicylic acid): marked antiinflammatory, analgesic and antipyretic properties comparable to those of acetylsalicylic acid | Duration of pharmacodynamic activity in comparison with acetylsalicylic acid (in words) ([7]; in vivo): more prolonged pharmacodynamic activity | Gastric injury (in words) ([7]; in vivo): did not exert any appreciable gastric injury | Toxicity in comparison with acetylsalicylic acid (in words) ([7]; in vivo): less toxic

O=C(OCCN(CCS(=O)(=O)O)C(=O)c1cccnc1)c1cccnc1 [Compound A, N-nicotinoyl-N-(2-nicotinoyloxy)ethyltaurine]
Mortality [8]: no mortality | Vasodilator effect: duration ([9]; 0.1 mg/kg endoperitoneal): 0 min | Vasodilator effect: positive response ([9]; 0.1 mg/kg endoperitoneal): 0% | Vasodilator effect: duration ([9]; 1.0 mg/kg endoperitoneal): 120 min | Vasodilator effect: positive response ([9]; 1.0 mg/kg endoperitoneal): 80% | Vasodilator effect: time of appearance ([9]; 1.0 mg/kg endoperitoneal): 90 s | Vasodilator effect: duration ([9]; 10.0 mg/kg endoperitoneal): 120 min | Vasodilator effect: positive response ([9]; 10.0 mg/kg endoperitoneal): 100% | Vasodilator effect: time of appearance ([9]; 10.0 mg/kg endoperitoneal): 96 s | Vasodilator activity (in words) ([9]; endoperitoneal): better activity than the 3-pyridylcarbinol compound | Bile dry residue change ([10]; 100 mg/kg i.v.): +40.0% | Bile volume change ([10]; 100 mg/kg i.v.): +52.0% | Choleretic activity (in words) ([10]; 100 mg/kg i.v.): appearance of choleretic activity | Bile dry residue after 2 h [10, 13]: 35.3 mg/h | Bile volume after 2 h [10, 13]: 1.14 mL/h | Bile dry residue after 1 h ([10]; before treatment (first hour)): 25.7 mg/h | Bile volume after 1 h ([10]; before treatment (first hour)): 0.75 mL/h | Reduction of BSF in the blood relative to controls [11]: 16% | Bile BSF excretion, percentage change vs controls ([12]; Handler diet): +36.0% | Serum beta-lipoproteins, percentage change vs controls ([12]; Handler diet): -28.9% | Serum total cholesterol, percentage change vs controls ([12]; Handler diet): -26.9% | Serum total lipids, percentage change vs controls ([12]; Handler diet): -19.6% | Bile BSF excretion, percentage change vs controls ([12]; Morris diet): +23.5% | Serum beta-lipoproteins, percentage change vs controls ([12]; Morris diet): -34.3% | Serum total cholesterol, percentage change vs controls ([12]; Morris diet): -14.3% | Serum total lipids, percentage change vs controls ([12]; Morris diet): -17.0% | Oral absorption (deduced from diet tests) ([12]; oral, Morris and Handler diets): absorbed orally
